Measurements reported in ChEMBL document CHEMBL1201861, “Genomics of Drug Sensitity in Cancer screening data, Wellcome Trust Sanger Institute”.

System: HL-60;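 also: growth inhibition of human HL-60 cells, read out with a cell viability assay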
Assay: cells
Type: functional, cell-based, Homo sapiens
Details: Homo sapiens, HL-60
Description: SANGER: Inhibition of human HL-60 cell growth in a cell viability assay.

SMILES | IC50
COc1cc(-c2nn([C@H]3CC[C@H](N4CCN(C(C)=O)CC4)CC3)c3ncnc(N)c23)ccc1NC(=O)c1cc2ccccc2n1C | > 5.12 µM

System: SHP77;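 also: growth inhibition of human SHP-77 cells measured by a cell viability assay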
Assay: cells
Type: functional, cell-based, Homo sapiens, SHP-77
Details: Homo sapiens, SHP77
Description: SANGER: Inhibition of human SHP-77 cell growth in a cell viability assay.

SMILES | IC50
COc1cc(-c2nn([C@H]3CC[C@H](N4CCN(C(C)=O)CC4)CC3)c3ncnc(N)c23)ccc1NC(=O)c1cc2ccccc2n1C | > 5.12 µM

System: CW-2;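 also: growth inhibition of CW-2 cells, read out by a cell viability assay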
Assay: cells
Type: functional, cell-based, Homo sapiens
Details: Homo sapiens, CW-2
Description: SANGER: Inhibition of human CW-2 cell growth in a cell viability assay.

SMILES | IC50
COc1cc(-c2nn([C@H]3CC[C@H](N4CCN(C(C)=O)CC4)CC3)c3ncnc(N)c23)ccc1NC(=O)c1cc2ccccc2n1C | > 5.12 µM

System: A388;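 also: growth inhibition of human A388 cells, read out with a cell viability assay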
Assay: cells
Type: functional, cell-based, Homo sapiens
Details: Homo sapiens, A388
Description: SANGER: Inhibition of human A388 cell growth in a cell viability assay.

SMILES | IC50
COc1cc(-c2nn([C@H]3CC[C@H](N4CCN(C(C)=O)CC4)CC3)c3ncnc(N)c23)ccc1NC(=O)c1cc2ccccc2n1C | 4.34 µM

System: KINGS-1;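 also: cell viability assay measuring suppression of KINGS-1 cell growth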
Assay: cells
Type: functional, cell-based, Homo sapiens
Details: Homo sapiens, KINGS-1
Description: SANGER: Inhibition of human KINGS-1 cell growth in a cell viability assay.

SMILES | IC50
COc1cc(-c2nn([C@H]3CC[C@H](N4CCN(C(C)=O)CC4)CC3)c3ncnc(N)c23)ccc1NC(=O)c1cc2ccccc2n1C | > 5.12 µM

System: HCE-4;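 also: cell viability assay measuring inhibition of growth in the human HCE-4 cell line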
Assay: cells
Type: functional, cell-based, Homo sapiens
Details: Homo sapiens, HCE-4
Description: SANGER: Inhibition of human HCE-4 cell growth in a cell viability assay.

SMILES | IC50
COc1cc(-c2nn([C@H]3CC[C@H](N4CCN(C(C)=O)CC4)CC3)c3ncnc(N)c23)ccc1NC(=O)c1cc2ccccc2n1C | 2.34 µM

System: KS-1;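 also: growth inhibition of KS-1 cells, read out with a cell viability assay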
Assay: cells
Type: functional, cell-based, Homo sapiens
Details: Homo sapiens, KS-1
Description: SANGER: Inhibition of human KS-1 cell growth in a cell viability assay.

SMILES | IC50
COc1cc(-c2nn([C@H]3CC[C@H](N4CCN(C(C)=O)CC4)CC3)c3ncnc(N)c23)ccc1NC(=O)c1cc2ccccc2n1C | 1.03 µM

System: MEG-01;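 also: growth inhibition of MEG-01 cells, read out by a cell viability assay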
Assay: cells
Type: functional, cell-based, Homo sapiens
Details: Homo sapiens, MEG-01
Description: SANGER: Inhibition of human MEG-01 cell growth in a cell viability assay.

SMILES | IC50
COc1cc(-c2nn([C@H]3CC[C@H](N4CCN(C(C)=O)CC4)CC3)c3ncnc(N)c23)ccc1NC(=O)c1cc2ccccc2n1C | 0.169 µM

System: GI-1;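 also: growth inhibition of human GI-1 cells, measured with a cell viability readout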
Assay: cells
Type: functional, cell-based, Homo sapiens
Details: Homo sapiens, GI-1
Description: SANGER: Inhibition of human GI-1 cell growth in a cell viability assay.

SMILES | IC50
COc1cc(-c2nn([C@H]3CC[C@H](N4CCN(C(C)=O)CC4)CC3)c3ncnc(N)c23)ccc1NC(=O)c1cc2ccccc2n1C | > 5.12 µM

System: no-10;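 also: growth inhibition of no-10 cells, read out with a cell viability assay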
Assay: cells
Type: functional, cell-based, Homo sapiens
Details: Homo sapiens
Description: SANGER: Inhibition of human no-10 cell growth in a cell viability assay.

SMILES | IC50
COc1cc(-c2nn([C@H]3CC[C@H](N4CCN(C(C)=O)CC4)CC3)c3ncnc(N)c23)ccc1NC(=O)c1cc2ccccc2n1C | 2.18 µM

System: EW-16;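 also: growth inhibition of human EW-16 cells, read out as cell viability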
Assay: cells
Type: functional, cell-based, Homo sapiens
Details: Homo sapiens, EW-16
Description: SANGER: Inhibition of human EW-16 cell growth in a cell viability assay.

SMILES | IC50
COc1cc(-c2nn([C@H]3CC[C@H](N4CCN(C(C)=O)CC4)CC3)c3ncnc(N)c23)ccc1NC(=O)c1cc2ccccc2n1C | 3.59 µM

System: KG-1;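 also: growth inhibition of KG-1 cells, read out by a cell viability assay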
Assay: cells
Type: functional, cell-based, Homo sapiens
Details: Homo sapiens, KG-1
Description: SANGER: Inhibition of human KG-1 cell growth in a cell viability assay.

SMILES | IC50
COc1cc(-c2nn([C@H]3CC[C@H](N4CCN(C(C)=O)CC4)CC3)c3ncnc(N)c23)ccc1NC(=O)c1cc2ccccc2n1C | > 5.12 µM

System: KM-H2;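 also: growth inhibition of KM-H2 cells, read out by a cell viability assay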
Assay: cells
Type: functional, cell-based, Homo sapiens
Details: Homo sapiens, KM-H2
Description: SANGER: Inhibition of human KM-H2 cell growth in a cell viability assay.

SMILES | IC50
COc1cc(-c2nn([C@H]3CC[C@H](N4CCN(C(C)=O)CC4)CC3)c3ncnc(N)c23)ccc1NC(=O)c1cc2ccccc2n1C | > 5.12 µM

System: TK-10;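 also: growth inhibition of TK-10 cells, read out in a cell viability assay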
Assay: cells
Type: functional, cell-based, Homo sapiens
Details: Homo sapiens, TK-10
Description: SANGER: Inhibition of human TK10 cell growth in a cell viability assay.

SMILES | IC50
COc1cc(-c2nn([C@H]3CC[C@H](N4CCN(C(C)=O)CC4)CC3)c3ncnc(N)c23)ccc1NC(=O)c1cc2ccccc2n1C | 0.596 µM

System: PSN1;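 also: suppression of growth of human PSN1 cells, read out by a cell viability assay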
Assay: cells
Type: functional, cell-based, Homo sapiens
Details: Homo sapiens, PSN1
Description: SANGER: Inhibition of human PSN1 cell growth in a cell viability assay.

SMILES | IC50
COc1cc(-c2nn([C@H]3CC[C@H](N4CCN(C(C)=O)CC4)CC3)c3ncnc(N)c23)ccc1NC(=O)c1cc2ccccc2n1C | 1.14 µM

System: COR-L88;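 also: growth inhibition of COR-L88 cells, read out with a cell viability assay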
Assay: cells
Type: functional, cell-based, Homo sapiens
Details: Homo sapiens, COR-L88
Description: SANGER: Inhibition of human COR-L88 cell growth in a cell viability assay.

SMILES | IC50
COc1cc(-c2nn([C@H]3CC[C@H](N4CCN(C(C)=O)CC4)CC3)c3ncnc(N)c23)ccc1NC(=O)c1cc2ccccc2n1C | > 5.12 µM

System: LU-139
Assay: cells
Type: functional, cell-based, Homo sapiens
Details: Homo sapiens, LU-139
Description: SANGER: Inhibition of human LU-139 cell growth in a cell viability assay.

SMILES | IC50
COc1cc(-c2nn([C@H]3CC[C@H](N4CCN(C(C)=O)CC4)CC3)c3ncnc(N)c23)ccc1NC(=O)c1cc2ccccc2n1C | > 5.12 µM

System: LB373-MEL-D;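 also: growth inhibition of the cell line, read out in a cell viability assay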
Assay: cells
Type: functional, cell-based, Homo sapiens
Details: Homo sapiens, LB373-MEL-D
Description: SANGER: Inhibition of human LB373-MEL-D cell growth in a cell viability assay.

SMILES | IC50
COc1cc(-c2nn([C@H]3CC[C@H](N4CCN(C(C)=O)CC4)CC3)c3ncnc(N)c23)ccc1NC(=O)c1cc2ccccc2n1C | > 5.12 µM

System: SW 954;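 also: growth inhibition of SW954 human cancer cells, read out as cell viability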
Assay: cells
Type: functional, cell-based, Homo sapiens
Details: Homo sapiens, SW 954
Description: SANGER: Inhibition of human SW954 cell growth in a cell viability assay.

SMILES | IC50
COc1cc(-c2nn([C@H]3CC[C@H](N4CCN(C(C)=O)CC4)CC3)c3ncnc(N)c23)ccc1NC(=O)c1cc2ccccc2n1C | 0.696 µM

System: KURAMOCHI;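 also: growth inhibition of KURAMOCHI cells, read out with a cell viability assay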
Assay: cells
Type: functional, cell-based, Homo sapiens
Details: Homo sapiens, KURAMOCHI
Description: SANGER: Inhibition of human KURAMOCHI cell growth in a cell viability assay.

SMILES | IC50
COc1cc(-c2nn([C@H]3CC[C@H](N4CCN(C(C)=O)CC4)CC3)c3ncnc(N)c23)ccc1NC(=O)c1cc2ccccc2n1C | 0.896 µM

System: MC116;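 also: growth inhibition of MC116 cells, read out with a cell viability assay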
Assay: cells
Type: functional, cell-based, Homo sapiens
Details: Homo sapiens, MC116
Description: SANGER: Inhibition of human MC116 cell growth in a cell viability assay.

SMILES | IC50
COc1cc(-c2nn([C@H]3CC[C@H](N4CCN(C(C)=O)CC4)CC3)c3ncnc(N)c23)ccc1NC(=O)c1cc2ccccc2n1C | 0.856 µM

System: KE-37;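 also: growth inhibition of KE-37 cells, read out with a cell viability assay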
Assay: cells
Type: functional, cell-based, Homo sapiens
Details: Homo sapiens, KE-37
Description: SANGER: Inhibition of human KE-37 cell growth in a cell viability assay.

SMILES | IC50
COc1cc(-c2nn([C@H]3CC[C@H](N4CCN(C(C)=O)CC4)CC3)c3ncnc(N)c23)ccc1NC(=O)c1cc2ccccc2n1C | > 5.12 µM

System: LU-134-A
Assay: cells
Type: functional, cell-based, Homo sapiens
Details: Homo sapiens, LU-134-A
Description: SANGER: Inhibition of human LU-134-A cell growth in a cell viability assay.

SMILES | IC50
COc1cc(-c2nn([C@H]3CC[C@H](N4CCN(C(C)=O)CC4)CC3)c3ncnc(N)c23)ccc1NC(=O)c1cc2ccccc2n1C | > 5.12 µM

System: RCC10RGB;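 also: growth inhibition of human RCC10RGB cells, read out by a cell viability assay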
Assay: cells
Type: functional, cell-based, Homo sapiens
Details: Homo sapiens, RCC10RGB
Description: SANGER: Inhibition of human RCC10RGB cell growth in a cell viability assay.

SMILES | IC50
COc1cc(-c2nn([C@H]3CC[C@H](N4CCN(C(C)=O)CC4)CC3)c3ncnc(N)c23)ccc1NC(=O)c1cc2ccccc2n1C | > 5.12 µM

System: NOS-1;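 also: growth inhibition of the human NOS-1 cell line, read out with a cell viability assay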
Assay: cells
Type: functional, cell-based, Homo sapiens
Details: Homo sapiens, NOS-1
Description: SANGER: Inhibition of human NOS-1 cell growth in a cell viability assay.

SMILES | IC50
COc1cc(-c2nn([C@H]3CC[C@H](N4CCN(C(C)=O)CC4)CC3)c3ncnc(N)c23)ccc1NC(=O)c1cc2ccccc2n1C | 0.196 µM
